Holding throughout (experiment): relative viability (nuclei count vs DMSO), 5 days (fraction); higher = more cells survive
Compound in test [1]: C1COCCN1C2=NC(=NC3=C2OC4=C3C=CC=N4)C5=CC(=CC=C5)NC(=O)C6=CN=C(C=C6)N + Nc1ncn([C@H]2C[C@H](O)[C@@H](CO)O2)c(=O)n1 [Decitabine] (partner 2 µM)
The gist of the method: (§1)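 For relative viability, nuclei counts in treated wells were divided by those in vehicle wells. Lung cancer cell lines had been pin-tool dosed in 1536-well plates the day after seeding and cultured for 5 days, then fixed and stained in one step (final 0.05% Triton X-100, 1% formaldehyde, 1 ug/ml Hoechst) and imaged at 4×. Doses were one drug alone or a fixed anchor-drug dose plus five library-drug doses (not always all listed) in √10 steps, and values are duplicate-plate medians.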

Compound in test [2]: CN1CCC(CNc2ccc3ncc(-c4cccc(OC(F)(F)F)c4)n3n2)CC1 [SGI-1776] + O=C(c1cc(Cc2n[nH]c(=O)c3ccccc23)ccc1F)N1CCN(C(=O)C2CC2)CC1 [Olaparib] (partner 8 µM)
The gist of the method:
as §1

Compound in test [3]: Nc1ccccc1NC(=O)c1ccc(CNC(=O)OCc2cccnc2)cc1 [Entinostat] + C[C@@H](Oc1cc(-c2cnn(C3CCNCC3)c2)cnc1N)c1c(Cl)ccc(F)c1Cl [Crizotinib] (partner 1 µM)
The gist of the method: as §1

Compound in test [4]: Nc1ccccc1NC(=O)c1ccc(CNC(=O)OCc2cccnc2)cc1 [Entinostat] + C[C@]1(O)C[C@@H](c2nc(-c3ccc4ccc(-c5ccccc5)nc4c3)c3c(N)nccn32)C1 [Linsitinib] (partner 1 µM)
The method, boiled down:
as §1

Consider PC-3 [JPC-3], for which the relative viability in test [1] (first compound 0.02 µM) is 0.846; in test [1] (first compound 0.06325 µM), 0.8; in test [1] (first compound 0.6325 µM), 0.843; in test [1] (first compound 2 µM) it was 0.755; in test [2] (first compound 0.08 µM), 1.13; in test [2] (first compound 0.8 µM), 1.14. Further, the relative viability in test [2] (first compound 2.53 µM) turned out to be 1.11; in test [2] (first compound 8 µM), 0.797; in test [3] (first compound 0.02 µM), 0.965; in test [3] (first compound 0.06325 µM), 1.01; in test [3] (first compound 0.2 µM), 0.79; in test [3] (first compound 0.6325 µM) it was 0.658. Further, the relative viability was 0.44 in test [3] (first compound 2 µM); 0.956 in test [4] (first compound 0.02 µM); 0.907 in test [4] (first compound 0.06325 µM); 0.728 in test [4] (first compound 0.2 µM); 0.716 in test [4] (first compound 0.6325 µM); 0.467 in test [4] (first compound 2 µM).

On to PC-14, for which the relative viability stood at 0.182 in test [1] (first compound 0.02 µM); 0.26 in test [1] (first compound 0.06325 µM); 0.226 in test [1] (first compound 0.2 µM); 0.295 in test [1] (first compound 0.6325 µM); 0.173 in test [1] (first compound 2 µM); 0.285 in test [2] (first compound 0.08 µM). Moreover, the relative viability in test [2] (first compound 0.8 µM) amounted to 0.367; in test [2] (first compound 2.53 µM), 0.305; in test [2] (first compound 8 µM), 0.114; in test [3] (first compound 0.02 µM), 0.849; in test [3] (first compound 0.06325 µM), 0.928; in test [3] (first compound 0.2 µM), 0.916. The relative viability came to 0.37 in test [3] (first compound 0.6325 µM); 0.159 in test [3] (first compound 2 µM); 1.03 in test [4] (first compound 0.02 µM); 0.947 in test [4] (first compound 0.06325 µM); 1.03 in test [4] (first compound 0.2 µM); 0.364 in test [4] (first compound 0.6325 µM). In addition, the relative viability in test [4] (first compound 2 µM) came out at 0.16.

As to RERF-LC-KJ, the relative viability in test [1] (first compound 0.02 µM) was found to be 0.71; in test [1] (first compound 0.06325 µM) it was 0.826; in test [1] (first compound 0.2 µM), 0.617; in test [1] (first compound 0.6325 µM), 0.758; in test [1] (first compound 2 µM), 0.585; in test [2] (first compound 0.08 µM), 0.866. Moreover, the relative viability was 0.92 in test [2] (first compound 0.8 µM); 0.802 in test [2] (first compound 2.53 µM); 0.586 in test [2] (first compound 8 µM); 0.844 in test [3] (first compound 0.02 µM); 0.75 in test [3] (first compound 0.06325 µM); 0.754 in test [3] (first compound 0.2 µM). Further, the relative viability in test [3] (first compound 0.6325 µM) worked out at 0.431; in test [3] (first compound 2 µM), 0.233; in test [4] (first compound 0.02 µM), 0.912; in test [4] (first compound 0.06325 µM) it was 0.766; in test [4] (first compound 0.2 µM), 0.885; in test [4] (first compound 0.6325 µM) it was 0.536. In addition, the relative viability in test [4] (first compound 2 µM) is 0.239.

On to SK-LU-1, for which the relative viability in test [1] (first compound 0.02 µM) was 0.595; in test [1] (first compound 0.06325 µM) it was 0.715; in test [1] (first compound 0.2 µM), 0.609; in test [1] (first compound 0.6325 µM) it was 0.616; in test [1] (first compound 2 µM), 0.46; in test [2] (first compound 0.08 µM) it was 0.514. Also, the relative viability in test [2] (first compound 0.8 µM) worked out at 0.5; in test [2] (first compound 2.53 µM), 0.452; in test [2] (first compound 8 µM), 0.5; in test [3] (first compound 0.02 µM), 0.935; in test [3] (first compound 0.06325 µM), 0.756; in test [3] (first compound 0.2 µM) it was 0.733. In addition, the relative viability was found to be 0.572 in test [3] (first compound 0.6325 µM); 0.511 in test [3] (first compound 2 µM); 1.1 in test [4] (first compound 0.02 µM); 1.04 in test [4] (first compound 0.06325 µM); 0.909 in test [4] (first compound 0.2 µM); 0.657 in test [4] (first compound 0.6325 µM). In addition, the relative viability in test [4] (first compound 2 µM) was 0.516.

With SK-MES-1, the relative viability in test [1] (first compound 0.02 µM) was 0.407; in test [1] (first compound 0.06325 µM) it was 0.491; in test [1] (first compound 0.2 µM), 0.408; in test [1] (first compound 0.6325 µM), 0.643; in test [1] (first compound 2 µM), 0.356; in test [2] (first compound 0.08 µM), 0.772. For the same cell line, the relative viability in test [2] (first compound 0.8 µM) amounted to 0.744; in test [2] (first compound 2.53 µM), 0.664; in test [2] (first compound 8 µM) it was 0.347; in test [3] (first compound 0.02 µM), 0.984; in test [3] (first compound 0.06325 µM), 1.03; in test [3] (first compound 0.2 µM) it was 1.09. Moreover, the relative viability came to 0.955 in test [3] (first compound 0.6325 µM); 0.67 in test [3] (first compound 2 µM); 1.11 in test [4] (first compound 0.02 µM); 1.05 in test [4] (first compound 0.06325 µM); 1.23 in test [4] (first compound 0.2 µM); 0.983 in test [4] (first compound 0.6325 µM). Also, the relative viability in test [4] (first compound 2 µM) turned out to be 0.69.

For the cell line SW 1573, the relative viability in test [1] (first compound 0.02 µM) worked out at 0.555; in test [1] (first compound 0.06325 µM), 0.472; in test [1] (first compound 0.2 µM), 0.565; in test [1] (first compound 0.6325 µM), 0.543; in test [1] (first compound 2 µM), 0.422; in test [2] (first compound 0.08 µM), 0.381. Further, the relative viability in test [2] (first compound 0.8 µM) turned out to be 0.428; in test [2] (first compound 2.53 µM) it was 0.475; in test [2] (first compound 8 µM), 0.297; in test [3] (first compound 0.02 µM) it was 0.848; in test [3] (first compound 0.06325 µM), 0.865; in test [3] (first compound 0.2 µM), 0.937. Besides, the relative viability in test [3] (first compound 0.6325 µM) was determined as 0.761; in test [3] (first compound 2 µM) it was 0.592; in test [4] (first compound 0.02 µM), 0.721; in test [4] (first compound 0.06325 µM), 0.93; in test [4] (first compound 0.2 µM), 0.811; in test [4] (first compound 0.6325 µM), 0.884. Besides, in test [4] (first compound 2 µM), the relative viability was found to be 0.609.

The values are drawn from the supplement of paper PMC10307832.
